According to US12668600B2 (Kumquat Biosciences Inc., priority 2023, dated 2026):

Assays:
Assay type in all cases: biochemical
KRAS G12D = molecular target: T1, KRAS G12D (Homo sapiens, UniProt P01116, G12D); test: HTRF KRAS-SOS1 interaction assay, KRAS G12D; conditions: binned ≤2 μM / >2 μM, read-out: Inhibition of KRAS G12D (IC50)
T1 construct: made in house; host or cells: E. coli, e.g. BL21 (DE3)
In short: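 Read-out: HTRF ratio 665/620 nm after ≥10 min incubation of compound with GST-KRAS/anti-GST-Eu and His-hSOS1/anti-6His-XL665. Duplicate dose series, 10 μM down to 0.01 μM. Buffer HEPES pH 7.4, NaCl, DTT, BSA, Igepal.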

KRAS WT = molecular target: T2, KRAS WT (Homo sapiens, UniProt P01116); test: HTRF KRAS-SOS1 interaction assay, wildtype KRAS; conditions: binned ≤2 μM / >2 μM, read-out: Inhibition of KRAS WT (IC50)
T2 construct: made in house; host or cells: E. coli, e.g. BL21 (DE3)
T2 sequence (P01116 1-188 isoform P01116-2): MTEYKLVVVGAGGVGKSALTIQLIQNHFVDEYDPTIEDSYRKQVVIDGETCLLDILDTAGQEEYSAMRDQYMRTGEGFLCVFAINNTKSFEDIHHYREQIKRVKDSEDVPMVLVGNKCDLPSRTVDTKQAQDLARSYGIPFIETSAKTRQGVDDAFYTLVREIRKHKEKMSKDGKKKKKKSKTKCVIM
Description: (§1) This assay can be also used to assess a selective inhibition or reduction of signaling output of a mutant Ras protein relative to a wildtype, or relative to a different mutant Ras protein. For example, the equilibrium interaction of wildtype KRAS or K-Ras mutant (e.g., wildtype or a mutant thereof) with SOS1 (e.g., hSOS1) can be assessed as a proxy or an indication for the ability of a subject compound to bind and inhibit Ras protein. The HTRF assay detects from (i) a fluorescence resonance energy transfer (FRET) donor (e.g., antiGST-Europium) that is bound to GST-tagged K-Ras mutant to (ii) a FRET acceptor (e.g., anti-6His-XL665) bound to a His-tagged hSOS1.
(§2) The assay buffer can contain ˜5 mM HEPES pH 7.4, ˜150 mM NaCl, ˜1 mM DTT, 0.05% BSA and 0.0025% (v/v) Igepal. A Ras working solution is prepared in an assay buffer containing typically a suitable amount of the protein construct (e.g., GST-tagged K-Ras mutant) and the FRET donor (e.g., antiGST-Eu (K) from Cisbio, France). A SOS1 working solution is prepared in an assay buffer containing suitable amount of the protein construct (e.g., His-hSOS1) and the FRET acceptor (e.g., anti-6His-XL665 from Cisbio, France). A suitable amount of the protein construct will depend on the range of activity or range of IC50 values being detected or under investigation. For detecting an IC50 within a range of 500 nM, the protein constructs of the same range of molarity can be utilized.
(§3) A fixed volume of DMSO with or without test compound is transferred into a 384-well plate. Ras working solution is added to all wells of the test plate. SOS1 working solution is added to all wells except for those that are subsequently filled with inhibitor control solution. Upon incubation for about 10 minutes or longer, the fluorescence is measured with a M1000Pro plate reader (Tecan) using HTRF detection (excitation 337 nm, emission 1:620 nm, emission 2:665 nm). Compounds are tested in duplicate at different concentrations (for example, 10 μM, 2.5 μM, 0.63 μM, 0.16 μM, 0.04 μM, 0.01 μM test compound). The ratiometric data (i.e., emission 2 divided by emission 1) is used to calculate IC50 values against Ras using GraphPad Prism (GraphPad software). Signaling output measured in terms of IC50 values can be obtained and a ratio of IC50 against one mutant relative to another mutant can be calculated.

KRAS G12V = molecular target: T3, KRAS G12V (Homo sapiens, UniProt P01116, G12V); test: HTRF KRAS-SOS1 interaction assay, KRAS G12V; conditions: binned ≤2 μM / >2 μM, read-out: Inhibition of KRAS G12V (IC50)
T3 construct: made in house; host or cells: E. coli, e.g. BL21 (DE3)
T3 sequence (P01116 1-188 isoform P01116-2 G12V): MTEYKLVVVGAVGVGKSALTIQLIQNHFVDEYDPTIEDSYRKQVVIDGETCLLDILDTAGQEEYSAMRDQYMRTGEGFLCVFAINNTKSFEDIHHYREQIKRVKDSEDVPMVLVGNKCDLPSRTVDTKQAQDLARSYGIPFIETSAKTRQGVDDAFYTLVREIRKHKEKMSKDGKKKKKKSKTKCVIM
Description: as §1, §2, §3

KRAS G12S = molecular target: T4, KRAS G12S (Homo sapiens, UniProt P01116, G12S); test: HTRF KRAS-SOS1 interaction assay, KRAS G12S; conditions: binned ≤2 μM / >2 μM, read-out: Inhibition of KRAS G12S (IC50)
T4 construct: made in house; host or cells: E. coli, e.g. BL21 (DE3)
T4 sequence (P01116 1-188 isoform P01116-2 G12S): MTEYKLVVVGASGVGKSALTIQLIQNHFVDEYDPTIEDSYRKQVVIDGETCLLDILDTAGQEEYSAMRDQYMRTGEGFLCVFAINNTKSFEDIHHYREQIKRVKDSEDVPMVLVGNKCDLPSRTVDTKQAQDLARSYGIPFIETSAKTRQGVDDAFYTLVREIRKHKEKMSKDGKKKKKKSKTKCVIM
Description: as §1, §2, §3

Measured: IC50

T1 sequence (P01116 1-188 isoform P01116-2 G12D): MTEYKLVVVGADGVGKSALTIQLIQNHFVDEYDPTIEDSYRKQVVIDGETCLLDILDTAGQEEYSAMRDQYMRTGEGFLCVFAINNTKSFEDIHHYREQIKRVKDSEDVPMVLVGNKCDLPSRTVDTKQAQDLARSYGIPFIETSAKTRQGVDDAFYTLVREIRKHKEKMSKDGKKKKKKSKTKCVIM

C=CC[C@H](c1cccnc1N)N1CCOc2c(Cl)c(-c3ccc(F)c4sc(N)c(C#N)c34)c(F)c3nc(OC[C@@]45CCCN4C[C@H](F)C5)nc1c23 (atropisomer, axis not shown; (aS)) [Compound 683, 2-amino-4-((R)-4-((R)-1-(2-aminopyridin-3-yl)but-3-en-1-yl)-8-chloro-10-fluoro-2-(((2R,7aS)-2-fluorotetrahydro-1H-pyrrolizin-7a (5H)-yl)methoxy)-5,6-dihydro-4H-[1,4]oxazepino[5,6,7-de]quinazolin-9-yl)-7-fluorobenzo[b]thiophene-3-carbonitrile]
≤ 2000 nM: all assays above

Cc1ccc([C@@H](C)N2CCOc3c(Cl)c(-c4ccc(F)c5sc(N)c(C#N)c45)c(F)c4nc(OC[C@@]56CCCN5C[C@H](F)C6)nc2c34)c(N)n1 [Compound 736, 2-amino-4-(4-((R)-1-(2-amino-6-methylpyridin-3-yl)ethyl)-8-chloro-10-fluoro-2-(((2R,7aS)-2-fluorotetrahydro-1H-pyrrolizin-7a(5H)-yl)methoxy)-5,6-dihydro-4H-[1,4]oxazepino[5,6,7-de]quinazolin-9-yl)-7-fluorobenzo[b]thiophene-3-carbonitrile]
≤ 2000 nM: all assays above

N#Cc1c(N)sc2c(F)ccc(-c3c(Cl)c4c5c(nc(OC[C@@]67CCCN6C[C@H](F)C7)nc5c3F)N(C(CC(F)F)c3cccnc3N)CCO4)c12 (mixture of isomers) [Compound 681, 2-amino-4-(4-(1-(2-aminopyridin-3-yl)-3,3-difluoropropyl)-8-chloro-10-fluoro-2-(((2R,7aS)-2-fluorotetrahydro-1H-pyrrolizin-7a(5H)-yl)methoxy)-5,6-dihydro-4H-[1,4]oxazepino[5,6,7-de]quinazolin-9-yl)-7-fluorobenzo[b]thiophene-3-carbonitrile]
≤ 2000 nM: KRAS WT | KRAS G12V | KRAS G12S

CO/N=C1\CN2CCC[C@@]2(COc2nc3c4c(c(Cl)c(-c5ccc(F)c6sc(N)c(C#N)c56)c(F)c4n2)OCCN3[C@H](C)c2cccnc2N)C1 (single isomer, unassigned) [Compound 607]
≤ 2000 nM: KRAS WT | KRAS G12V | KRAS G12S

C=CC[C@H](c1cccnc1N)N1CCOc2c(C(F)(F)F)c(-c3ccc(F)c4sc(N)c(C#N)c34)c(F)c3nc(OC[C@@]45CCCN4C[C@H](F)C5)nc1c23 (single isomer, unassigned) [Compound 616]
≤ 2000 nM: KRAS WT | KRAS G12V | KRAS G12S

C[C@H](c1cccnc1N)N1CCOc2c(Cl)c(-c3ccc(F)c4sc(N)c(C#N)c34)c(F)c3nc(OCC45CCCN4C[C@H](OCCCP(C)(C)=O)C5)nc1c23 (single isomer, unassigned) [Compound 677]
≤ 2000 nM: KRAS WT | KRAS G12V | KRAS G12S

N#Cc1c(N)sc2c(F)ccc(-c3c(Cl)c4c5c(nc(OC[C@@]67CCCN6C[C@H](F)C7)nc5c3F)N(C(C=C(F)F)c3cccnc3N)CCO4)c12 (single isomer, unassigned) [Compound 655]
≤ 2000 nM: KRAS WT | KRAS G12V | KRAS G12S

C=Cc1c(-c2ccc(F)c3sc(N)c(C#N)c23)c(F)c2nc(OC[C@@]34CCCN3C[C@H](F)C4)nc3c2c1OCCN3[C@H](C)c1cccnc1N (single isomer, unassigned) [Compound 603]
≤ 2000 nM: KRAS WT | KRAS G12V | KRAS G12S

C[C@H](c1cccnc1N)N1CCOc2c(C(F)(F)F)c(-c3ccc(F)c4sc(N)c(C#N)c34)c(F)c3nc(OC[C@@]45CCCN4CC(C#N)C5)nc1c23 (single isomer, unassigned) [Compound 663]
≤ 2000 nM: KRAS WT | KRAS G12V | KRAS G12S

C[C@H](c1cccnc1N)N1CCOc2c(Cl)c(-c3cccc4sc(N)c(C#N)c34)c(F)c3nc(OC[C@@]45CCCN4CC(=C(F)F)C5)nc1c23 (single isomer, unassigned) [Compound 660]
≤ 2000 nM: KRAS WT | KRAS G12V | KRAS G12S

N#Cc1c(N)sc2c(F)ccc(-c3c(Cl)c4c5c(nc(OC[C@@]67CCCN6C[C@H](F)C7)nc5c3F)N(C(/C=C\C(F)(F)F)c3cccnc3N)CCO4)c12 (single isomer, unassigned) [Compound 632]
≤ 2000 nM: KRAS WT | KRAS G12V | KRAS G12S

C[C@H](c1ccc(F)nc1N)N1CCOc2c(C(F)(F)F)c(-c3ccc(F)c4sc(N)c(C#N)c34)c(F)c3nc(OC[C@@]45CCCN4C[C@H](F)C5)nc1c23 (single isomer, unassigned) [Compound 628]
≤ 2000 nM: KRAS WT | KRAS G12V | KRAS G12S

N#Cc1c(N)sc2c(F)ccc(-c3c(C(F)(F)F)c4c5c(nc(OC[C@@]67CCCN6C[C@H](F)C7)nc5c3F)N([C@H](CCN3CCOCC3)c3cccnc3N)CCO4)c12 (single isomer, unassigned) [Compound 685]
≤ 2000 nM: KRAS WT | KRAS G12V | KRAS G12S

N#Cc1c(N)sc2c(F)ccc(-c3c(C(F)(F)F)c4c5c(nc(OC[C@@]67CCCN6C[C@H](F)C7)nc5c3F)N([C@H](CCC3CCOCC3)c3cccnc3N)CCO4)c12 (single isomer, unassigned) [Compound 611]
≤ 2000 nM: KRAS WT | KRAS G12V | KRAS G12S

N#Cc1c(N)sc2c(F)ccc(-c3c(C(F)(F)F)c4c5c(nc(OC[C@@]67CCCN6C[C@H](F)C7)nc5c3F)N([C@H](CC3CCOCC3)c3cccnc3N)CCO4)c12 (single isomer, unassigned) [Compound 642]
≤ 2000 nM: KRAS WT | KRAS G12V | KRAS G12S

CCO/N=C1\CN2CCC[C@@]2(COc2nc3c4c(c(Cl)c(-c5ccc(F)c6sc(N)c(C#N)c56)c(F)c4n2)OCCN3[C@H](C)c2cccnc2N)C1 (single isomer, unassigned) [Compound 627]
≤ 2000 nM: KRAS WT | KRAS G12V | KRAS G12S

N#Cc1c(N)sc2c(F)ccc(-c3c(C(F)(F)F)c4c5c(nc(OC[C@@]67CCCN6C[C@H](F)C7)nc5c3F)N([C@H](CCC3COCCO3)c3cccnc3N)CCO4)c12 (single isomer, unassigned) [Compound 624]
≤ 2000 nM: KRAS WT | KRAS G12V | KRAS G12S

CS(=O)(=O)CCC[C@H](c1cccnc1N)N1CCOc2c(C(F)(F)F)c(-c3ccc(F)c4sc(N)c(C#N)c34)c(F)c3nc(OC[C@@]45CCCN4C[C@H](F)C5)nc1c23 (single isomer, unassigned) [Compound 629]
≤ 2000 nM: KRAS WT | KRAS G12V | KRAS G12S

N#Cc1c(N)sc2c(F)ccc(-c3c(Cl)c4c5c(nc(OC[C@@]67CCCN6C[C@H](F)C7)nc5c3F)N(C(c3cccnc3N)C(F)F)CCO4)c12 (single isomer, unassigned) [Compound 618]
≤ 2000 nM: KRAS WT | KRAS G12V | KRAS G12S
